Laboratory results as given in patent US8658618B2, “Methods for preventing or reducing neurotoxicity associated with administering DPD inhibitors in combination with 5-FU and 5-FU prodrugs” (Adherex Technologies, Inc., priority 2009, dated 2014).
Where two headings read alike, the source gives them in different places.

Assays:
[1] = system: cancer patients; conditions: cited from earlier work
[2] = system: dogs; conditions: cited from earlier work
[3] = system: cancer patients; experiment: Clinical trial: 5 mg eniluracil followed 12-24 hours later by 5-FU, neurotoxicity; assay type: in vivo, human; conditions: then 30-160 mg 5-FU 12-24 hours later, 41 patients
Description: Therefore, a clinical trial was initiated wherein cancer patients were administered a 5 mg dose of eniluracil followed by 5-FU at a 30-160 mg dose 12-24 hours later. Unexpectedly, the majority of the 41 patients undergoing this treatment experienced some form of mild to severe neurotoxicity, with the main neurological symptoms being ataxia (an unsteady gait), neuropathy, confusion, dizziness, and slurred speech.
Based on this important finding, a clinical trial was initiated wherein cancer patients were administered a 5 mg dose of eniluracil, which was believed to be sufficient to systemically eliminate DPD activity in the patients. 5-FU was then administered 12-24 hours later at a dose of 30-160 mg. Unexpectedly, however, the majority of the 41 patients undergoing this treatment experienced some form of mild to severe neurotoxicity, with the main neurological symptoms being ataxia (an unsteady gait), neuropathy, confusion, dizziness, and slurred speech.
A clinical trial was initiated based on the important mechanistic findings described in WO 2006/060697. More specifically, cancer patients were administered a 5 mg dose of eniluracil and 12-24 hours thereafter were administered a 30-160 mg dose of 5-FU. […]

[4] = system: patients with colorectal cancer; conditions: cited from earlier work
[5] = Calculated amount of eniluracil remaining in the body after 10.5 hours; set-up: species or system human; conditions: approximately three elimination half-lives
Description: The amounts of eniluracil shown in Table 1 below may be used achieve doses in the 16-20 mg/m^2 range. The calculated amount of eniluracil remaining in the body after 10.5 hours (approximately three elimination half-lives) is also presented. Thus, if the weekly and the 5-day dosing schedules employ doses of 5-FU ranging between about 15-50 mg/m^2, the ratio of eniluracil to 5-FU will always be less than about 1:6 when 5-FU is administered. For example, when the commonly used 25 mg/m^2 dose of 5-FU is administered 10.5 hours after eniluracil, the ratio of eniluracil to 5-FU will be about 1:10 or less.

[6] = system: tumor; conditions: excess eniluracil present at the time 5-FU is administered; cited from earlier work
[7] = system: tumors; conditions: eniluracil with 5-FU, laboratory animals bearing tumors; cited from earlier work
[8] = system: patients; conditions: 20 mg eniluracil before 5-FU; 17 patients; cited from earlier work
[9] = target: T1, DPD (Homo sapiens, UniProt Q12882); conditions: eniluracil 0.74 mg/m^2 (about 1 mg total), for prolonged periods; cited from earlier work
T1 construct: eliminated greater than 90% of DPD in peripheral blood cells for prolonged periods; from tissue; host or cells: peripheral blood cells of cancer patients
T1 sequence (Q12882 4-1025): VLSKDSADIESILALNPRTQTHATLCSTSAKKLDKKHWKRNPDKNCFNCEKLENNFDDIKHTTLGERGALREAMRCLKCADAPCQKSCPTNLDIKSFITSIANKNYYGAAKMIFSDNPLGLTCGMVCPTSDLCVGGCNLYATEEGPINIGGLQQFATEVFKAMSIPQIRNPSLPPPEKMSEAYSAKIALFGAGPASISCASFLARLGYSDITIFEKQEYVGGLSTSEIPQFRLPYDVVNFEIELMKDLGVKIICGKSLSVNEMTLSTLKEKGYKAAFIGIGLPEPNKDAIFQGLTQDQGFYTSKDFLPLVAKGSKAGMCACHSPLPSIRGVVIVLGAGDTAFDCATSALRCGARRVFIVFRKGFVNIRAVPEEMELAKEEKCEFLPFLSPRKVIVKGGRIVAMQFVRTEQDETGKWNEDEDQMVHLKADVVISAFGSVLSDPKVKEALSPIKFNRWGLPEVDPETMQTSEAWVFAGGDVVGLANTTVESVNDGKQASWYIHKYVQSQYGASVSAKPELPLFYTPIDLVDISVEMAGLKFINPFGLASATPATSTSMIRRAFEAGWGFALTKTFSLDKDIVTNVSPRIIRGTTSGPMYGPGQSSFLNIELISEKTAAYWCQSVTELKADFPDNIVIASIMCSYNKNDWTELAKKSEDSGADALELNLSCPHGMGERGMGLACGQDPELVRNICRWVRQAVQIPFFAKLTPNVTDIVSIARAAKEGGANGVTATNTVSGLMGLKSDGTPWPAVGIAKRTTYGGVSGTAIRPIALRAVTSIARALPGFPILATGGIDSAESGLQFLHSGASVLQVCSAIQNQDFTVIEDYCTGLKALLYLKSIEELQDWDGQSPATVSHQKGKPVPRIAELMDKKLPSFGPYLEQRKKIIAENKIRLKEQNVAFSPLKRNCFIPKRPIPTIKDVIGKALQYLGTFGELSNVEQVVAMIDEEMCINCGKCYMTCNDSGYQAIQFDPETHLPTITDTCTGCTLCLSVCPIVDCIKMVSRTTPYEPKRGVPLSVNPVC

[10] = target: T2, DPD (Rattus norvegicus, UniProt O89000); conditions: rats; spleen, intestinal mucosa, lung; cited from earlier work
T2 construct: from tissue; host or cells: rat brain, liver, spleen, intestinal mucosa, lung (in vivo dosing)
T2 sequence (O89000 1-1025): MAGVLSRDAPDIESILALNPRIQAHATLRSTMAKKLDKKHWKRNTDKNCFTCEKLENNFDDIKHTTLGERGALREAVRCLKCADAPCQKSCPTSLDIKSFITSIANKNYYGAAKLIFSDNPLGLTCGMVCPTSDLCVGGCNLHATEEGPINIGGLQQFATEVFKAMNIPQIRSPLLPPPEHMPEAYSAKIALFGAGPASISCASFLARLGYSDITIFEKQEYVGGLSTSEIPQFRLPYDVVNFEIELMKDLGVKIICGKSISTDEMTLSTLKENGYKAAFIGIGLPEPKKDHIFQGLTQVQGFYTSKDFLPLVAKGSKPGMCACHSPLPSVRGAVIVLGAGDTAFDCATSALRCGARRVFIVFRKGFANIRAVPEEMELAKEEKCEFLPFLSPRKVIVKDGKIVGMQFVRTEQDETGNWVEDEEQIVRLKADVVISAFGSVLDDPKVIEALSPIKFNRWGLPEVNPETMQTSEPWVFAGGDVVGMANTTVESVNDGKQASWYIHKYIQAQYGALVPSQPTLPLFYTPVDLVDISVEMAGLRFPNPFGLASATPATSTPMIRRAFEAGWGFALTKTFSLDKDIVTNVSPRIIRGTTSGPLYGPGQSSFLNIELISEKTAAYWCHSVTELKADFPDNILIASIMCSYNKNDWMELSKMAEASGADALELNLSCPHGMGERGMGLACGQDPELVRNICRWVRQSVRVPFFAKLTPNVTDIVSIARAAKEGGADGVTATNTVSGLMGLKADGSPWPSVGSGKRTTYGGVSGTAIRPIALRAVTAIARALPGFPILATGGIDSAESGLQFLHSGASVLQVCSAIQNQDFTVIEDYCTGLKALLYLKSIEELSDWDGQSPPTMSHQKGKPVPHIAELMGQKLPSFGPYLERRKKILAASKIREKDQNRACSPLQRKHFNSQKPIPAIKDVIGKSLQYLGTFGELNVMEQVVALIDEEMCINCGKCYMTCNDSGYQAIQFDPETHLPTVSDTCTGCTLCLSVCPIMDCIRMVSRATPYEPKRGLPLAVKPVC

[11] = target: T1, DPD; conditions: the two patients with neurotoxicity, 20 mg eniluracil (9.5 and 8.0 mg/m^2); cited from earlier work
[12] = humans; cited from earlier work
[13] = system: tumor; conditions: tumor-bearing rats and tissue culture; cited from earlier work
[14] = cited from earlier work; for elimination half-life of 5-FU: Phase I
[15] = system: mice, monkeys, cats, and dogs; conditions: in vivo; cited from earlier work

SMILES: C#Cc1c[nH]c(=O)[nH]c1=O [eniluracil, 5-ethynyluracil]
- toxicity ([1]; Phase I clinical trials in cancer patients): without causing toxicity
- safety ([1]; doses up to 50 mg per day for seven days): safe
- neurotoxicity ([2]; dogs pretreated with eniluracil, high blood levels of 5-FU): without any neurotoxicity
- patients experiencing some form of mild to severe neurotoxicity [3]: majority
- antitumor benefit versus standard regimen of 5-FU/leucovorin ([4]; 10 mg/m^2 eniluracil and 1 mg/m^2 5-FU every 12 hr for 28 days, North American trial): less antitumor benefit
- total incidence of severe neurotoxicity ([4]; eniluracil about 11.5 mg/m^2 every 12 hours): 6%
- Estimated Amount of Eniluracil remaining 10.5 hr after dosing ([5]; eniluracil dose 25 mg): 3.1 mg
- Estimated Amount of Eniluracil remaining 10.5 hr after dosing ([5]; eniluracil dose 30 mg): 3.8 mg
- Estimated Amount of Eniluracil remaining 10.5 hr after dosing ([5]; eniluracil dose 40 mg): 5.0 mg
- Estimated Amount of Eniluracil remaining 10.5 hr after dosing ([5]; eniluracil dose 50 mg): 6.3 mg
- antitumor activity of 5-FU [6]: significantly diminished
- antitumor efficacy of 5-FU [7]: significantly improved
- incidence of neurotoxicity [8]: 12%
- DPD eliminated in peripheral blood cells [9]: greater than 90%
- dose required to inactivate 50% of DPD in brain relative to liver and other non-nervous tissues [10]: approximately six-fold
- DPD in peripheral blood cells [11]: completely inactivated
- elimination half-life for eniluracil [12]: about 3.5 hours

SMILES: Nc1nc2c(c(=O)[nH]1)N(C=O)C(CNc1ccc(C(=O)N[C@@H](CCC(=O)O)C(=O)O)cc1)CN2 (stereo partly shown) [Leucovorin]
- antitumor efficacy of eniluracil and 5-FU [13]: improve the antitumor efficacy

SMILES: O=c1[nH]cc(F)c(=O)[nH]1 [5-FU, 5-Fluorouracil]
- neurotoxicity ([2]; intravenous 5-FU alone, only low blood levels of 5-FU): induced seizures, muscle tremors, and ataxia
- elimination half-life of 5-FU ([14]; after one dose of eniluracil): 3.5 h
- half-life of 5-FU ([14]; eniluracil 3.7 mg/m^2): 4.5 to 6.5 h
- 5-FU elimination half-life ([14]; with eniluracil): 4.5 to 6.5 h
- elimination half-life of 5-FU ([14]; without eniluracil): about 10 minutes
- 5-FU elimination half-life ([14]; without eniluracil): 0.167 to 0.333 h

SMILES: NCC(F)C(=O)O (stereo not drawn) [F-Bal, α-fluoro-β-alanine]
- neurotoxicity [15]: can cause neurotoxicity
